Assay results: ChEMBL document CHEMBL1133293, “Synthesis of a water-soluble prodrug of entacapone” (Bioorg Med Chem Lett, 2000)
Values after ≈ are worked out from the molar mass of the structure shown.

Assays:
[1] = Half life period in rabbit liver homogenate; format: ADME, tissue-based, Oryctolagus cuniculus
[2] = Solubility at pH 1.2; format: physicochemical; details: buffer
[3] = Solubility at pH 7.4; format: physicochemical; details: buffer
[4] = Half life period t pH 7.4 at 37 degree Centigrade; format: ADME

SMILES | half-life [1] [min] | solubility [2] [mg/mL] | solubility [3] [mg/mL] | half-life [4] [days]
CCN(CC)C(=O)C(C#N)=Cc1cc(O)c(O)c([N+](=O)[O-])c1 | 58 |  |  | 
CCN(CC)C(=O)/C(C#N)=C/c1cc(OP(=O)([O-])[O-])c([O-])c([N+](=O)[O-])c1.[Na+].[Na+].[Na+] |  | 30 | 30 | 92.8
CCN(CC)C(=O)/C(C#N)=C/c1cc(O)c(O)c([N+](=O)[O-])c1 [ENTACAPONE] | 58 | 0.017 (≈ 55.7 µM) | 1.75 (≈ 5730 µM) | 
